For nine compounds, GI50 and TGI results are on record in PubChem BioAssay (NCI).

Among the test systems are K-562 leukemia; A549 NSCLC; KM12 colon; MOLT-4 leukemia; SNB-19 CNS; CCRF-CEM leukemia; SK-MEL-5 melanoma; SK-MEL-28 melanoma; HOP-62 NSCLC; CAKI-1 renal.
Common to all, as to assay: NCI anticancer screen, dose series, 48 h

Several values for one entry are separate records, joined by “and”; a condition that tells them apart may be missing. Equal values may be shown once.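 Cultured in 96-well plates, cells were exposed to test compound for 48 hours across five concentrations. GI50: concentration for 50% inhibition of growth. TGI denotes the concentration required for complete inhibition of growth.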

As to `CCc1ccc(/C=C2/SC(=S)NC2=O)cc1`, the GI50 in the assay with K-562 leukemia is 29.3 µM; in the assay on A549 NSCLC, 20.8 µM; in the assay on KM12 colon, 25.1 µM; in the assay with MOLT-4 leukemia it was 23.5 µM; in the assay on SNB-19 CNS it was 20.3 µM; with CCRF-CEM leukemia, 22.6 µM. Further, the GI50 with SK-MEL-5 melanoma was 14.9 µM; with SK-MEL-28 melanoma, 22.9 µM; in the assay on HOP-62 NSCLC, 25.7 µM; in the assay with CAKI-1 renal, 24 µM. In addition, the TGI with K-562 leukemia is above 100 µM; in the assay with A549 NSCLC, above 80.2 µM; in the assay on KM12 colon, above 77.3 µM; in the assay with MOLT-4 leukemia, 84.3 µM; in the assay with SNB-19 CNS, above 90.3 µM; with CCRF-CEM leukemia, above 80.4 µM. Further, the TGI was 37.6 µM in the assay on SK-MEL-5 melanoma, 79.7 µM with SK-MEL-28 melanoma, 78.2 µM in the assay on HOP-62 NSCLC and above 81.5 µM in the assay on CAKI-1 renal.
Turning to `c1ccc(CN(Cc2ccccn2)Cn2cccn2)nc1`, the TGI in the assay with K-562 leukemia, with A549 NSCLC, in the assay with KM12 colon, with MOLT-4 leukemia, in the assay on SNB-19 CNS and with CCRF-CEM leukemia was above 100 µM each time. Besides, the TGI in the assay with SK-MEL-5 melanoma, in the assay with SK-MEL-28 melanoma, in the assay with HOP-62 NSCLC and in the assay on CAKI-1 renal was above 100 µM in each case.
In the case of `CC(=O)OCC1OC(O[C@@H]2C[C@H]3C(C)(C)[C@H](OC(C)=O)CC[C@]3(C)[C@H]3CC[C@@H]4[C@]5(CC[C@@]4(C)[C@@]32C)O[C@@H]([C@H](O)C(C)(C)O)C[C@@H]5C)C(O)C(O)C1O` (some centres undefined), the GI50 in the assay with K-562 leukemia is 4.51 µM; in the assay with A549 NSCLC, 5.1 µM; in the assay with KM12 colon, 2 µM; in the assay on MOLT-4 leukemia it was 3.13 µM; with SNB-19 CNS, 12.5 µM; in the assay on CCRF-CEM leukemia, 3.16 µM. Besides, the GI50 was 10.7 µM in the assay on SK-MEL-5 melanoma, 10.2 µM with SK-MEL-28 melanoma and 14.2 µM in the assay with HOP-62 NSCLC. The TGI in the assay with K-562 leukemia came to 25.1 µM; in the assay on A549 NSCLC, 18.3 µM; in the assay with KM12 colon, 7.68 µM; in the assay on MOLT-4 leukemia, 12.2 µM; in the assay on SNB-19 CNS, 30.5 µM; in the assay with CCRF-CEM leukemia it was 20 µM. The TGI in the assay on SK-MEL-5 melanoma came out at 22.5 µM; in the assay with SK-MEL-28 melanoma, 24 µM; in the assay on HOP-62 NSCLC it was 27.3 µM; in the assay with CAKI-1 renal it was 13.5 µM.
In the case of `O=C(O)c1c(Cl)c(Cl)c(Cl)c(Cl)c1-c1c2cc(I)c(=O)c(I)c-2oc2c(I)c(O)c(I)cc12`, the GI50 is 39.2 µM and 46 µM in the assay with K-562 leukemia; 177 µM with A549 NSCLC; 53.6 µM with KM12 colon; 40.8 µM in the assay with MOLT-4 leukemia; 38.2 µM and 28.6 µM in the assay with SNB-19 CNS; 30.2 µM and 41.9 µM in the assay with CCRF-CEM leukemia. Further, the GI50 is 36.3 µM in the assay with SK-MEL-5 melanoma; 55.9 µM and 32.9 µM with SK-MEL-28 melanoma; 80.7 µM and 31 µM in the assay on HOP-62 NSCLC; 39 µM in the assay with CAKI-1 renal. For the same compound, the TGI was 116 µM in the assay on K-562 leukemia; above 200 µM in the assay with A549 NSCLC; 182 µM in the assay with KM12 colon; 86.2 µM in the assay with MOLT-4 leukemia; 63.8 µM in the assay with SNB-19 CNS; 95.7 µM with CCRF-CEM leukemia. Besides, the TGI in the assay with SK-MEL-5 melanoma was determined as 68.9 µM; with SK-MEL-28 melanoma, 73 µM; with HOP-62 NSCLC, 87.4 µM; with CAKI-1 renal, 86.7 µM.
Turning to `Cc1ccc(C)c2sc3cc(=O)ccc-3nc12`, the TGI in the assay with K-562 leukemia is 79.6 µM; with A549 NSCLC it was above 100 µM; with KM12 colon, above 100 µM; in the assay on MOLT-4 leukemia, 69.6 µM; in the assay on SNB-19 CNS it was above 100 µM; with CCRF-CEM leukemia it was 70.3 µM. For the same compound, the TGI in the assay on SK-MEL-5 melanoma was 31 µM; in the assay on SK-MEL-28 melanoma, above 100 µM; with HOP-62 NSCLC it was above 100 µM; with CAKI-1 renal, 70.5 µM.
As to `COc1cc(C(=O)c2c(-c3ccccc3)oc3ccccc23)cc(OC)c1O`, the GI50 in the assay on K-562 leukemia was 0.4 µM; with A549 NSCLC, 4.41 µM; in the assay on KM12 colon, 3.99 µM; in the assay with MOLT-4 leukemia, 2.69 µM; in the assay with SNB-19 CNS, 6.76 µM; in the assay with CCRF-CEM leukemia, 1.71 µM. In addition, the GI50 in the assay with SK-MEL-5 melanoma is 2.57 µM; in the assay with SK-MEL-28 melanoma, 10.4 µM; with HOP-62 NSCLC, 7.3 µM; in the assay with CAKI-1 renal, 0.766 µM. The TGI was 44.5 µM in the assay on K-562 leukemia; above 100 µM in the assay on A549 NSCLC; 16.5 µM in the assay on KM12 colon; 22.2 µM in the assay with MOLT-4 leukemia; 21.7 µM in the assay with SNB-19 CNS; 14.3 µM in the assay on CCRF-CEM leukemia. In addition, the TGI was determined as 12.6 µM in the assay with SK-MEL-5 melanoma, 25.1 µM with SK-MEL-28 melanoma, 23.4 µM in the assay with HOP-62 NSCLC and 16 µM in the assay on CAKI-1 renal.
Regarding `O=C(/C=C/c1cccs1)Nc1ncc(Cc2ccccc2F)s1`, the GI50 in the assay with K-562 leukemia is 0.0749 µM; in the assay on A549 NSCLC, 0.48 µM; in the assay with KM12 colon, 0.205 µM; in the assay with MOLT-4 leukemia, 0.378 µM; in the assay on SNB-19 CNS it was 0.361 µM; with CCRF-CEM leukemia it was 0.254 µM. Moreover, the GI50 in the assay on SK-MEL-5 melanoma is 0.242 µM; in the assay on SK-MEL-28 melanoma it was 0.886 µM; in the assay on HOP-62 NSCLC, 0.407 µM; with CAKI-1 renal, 0.0753 µM. Moreover, the TGI in the assay on K-562 leukemia, in the assay with A549 NSCLC, in the assay on KM12 colon, in the assay on MOLT-4 leukemia, with SNB-19 CNS and in the assay on CCRF-CEM leukemia was above 100 µM in each case. In addition, the TGI with SK-MEL-5 melanoma, with SK-MEL-28 melanoma, in the assay with HOP-62 NSCLC and with CAKI-1 renal was above 100 µM in each case.
Take `Nc1ccccc1C#Cc1ccccc1C#CCCCCO`: the GI50 in the assay with K-562 leukemia was 19.1 µM; with A549 NSCLC, 18 µM; with KM12 colon, 16.9 µM; in the assay on MOLT-4 leukemia, 22.7 µM; in the assay with SNB-19 CNS it was 35.7 µM; in the assay with CCRF-CEM leukemia, 23.2 µM. For the same compound, the GI50 with SK-MEL-5 melanoma is 31.5 µM; in the assay on SK-MEL-28 melanoma, 28.4 µM; in the assay on HOP-62 NSCLC, 10.9 µM; in the assay with CAKI-1 renal, 22.8 µM. Also, the TGI in the assay with K-562 leukemia is 58.3 µM; with A549 NSCLC, 45 µM; in the assay with KM12 colon, 48.4 µM; in the assay with MOLT-4 leukemia it was 68.1 µM; in the assay with SNB-19 CNS, above 100 µM; with CCRF-CEM leukemia, 78.7 µM. For the same compound, the TGI came out at 94.3 µM with SK-MEL-5 melanoma, 49.7 µM in the assay on SK-MEL-28 melanoma, 33.5 µM with HOP-62 NSCLC and 67.1 µM with CAKI-1 renal.
For `Cc1ccc(C)c(NC(=O)CCc2n[nH]c(=S)o2)c1`, the TGI with K-562 leukemia, with A549 NSCLC, with KM12 colon, in the assay on MOLT-4 leukemia, in the assay with SNB-19 CNS and in the assay with CCRF-CEM leukemia was above 100 µM in each case. Also, the TGI in the assay on SK-MEL-5 melanoma, in the assay on SK-MEL-28 melanoma, with HOP-62 NSCLC and in the assay with CAKI-1 renal was above 100 µM each time.
